Source: PubChem BioAssay AID1963829 (Molecular Pharmacology Branch, DTP, NCI, 2024)

Test system: 935938-334-R-J1-PDC complex spheroid viability
Assay: Anticancer human tumor 935938-334-R-J1-PDC patient-derived small intestine adenocarcinoma cell line growth inhibition [POLQ]
Conditions: for IC50: curve of first compound; for viability, T/C: stronger effect = lower value
Procedure, shortened: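 PDC + HUVEC + MSC complex spheroids; POLQ inhibitors ± partner drugs; top conc. at/near clinical Cmax, else 10 microM (SN-38 1 microM), half-log dilutions; 37 degrees C, 5% CO2.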

[1] = second compound 0.0316 µM, first compound 0.00316 µM
[2] = second compound 0.0316 µM, first compound 0.01 µM
[3] = second compound 0.0316 µM, first compound 0.0316 µM
[4] = second compound 0.0316 µM, first compound 0.1 µM
[5] = second compound 0.1 µM, first compound 0.00316 µM
[6] = second compound 0.1 µM, first compound 0.01 µM
[7] = second compound 0.1 µM, first compound 0.0316 µM
[8] = second compound 0.1 µM, first compound 0.1 µM
[9] = second compound 0.316 µM, first compound 0.00316 µM
[10] = second compound 0.316 µM, first compound 0.01 µM
[11] = second compound 0.316 µM, first compound 0.0316 µM
[12] = second compound 0.316 µM, first compound 0.1 µM
[13] = second compound 1 µM, first compound 0.00316 µM
[14] = second compound 1 µM, first compound 0.01 µM
[15] = second compound 1 µM, first compound 0.0316 µM
[16] = second compound 1 µM, first compound 0.1 µM
[17] = second compound 3.16 µM, first compound 0.00316 µM
[18] = second compound 3.16 µM, first compound 0.01 µM
[19] = second compound 3.16 µM, first compound 0.0316 µM
[20] = second compound 3.16 µM, first compound 0.1 µM
[21] = second compound 10 µM, first compound 0.00316 µM
[22] = second compound 10 µM, first compound 0.01 µM
[23] = second compound 10 µM, first compound 0.0316 µM
[24] = second compound 10 µM, first compound 0.1 µM
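Further: spheroids exposed to drugs for seven days before viability read.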
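Wherever viability, T/C is given: 100% = DMSO vehicle control wells.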

With `CC[C@@]1(O)C(=O)OCc2c1cc1n(c2=O)Cc2cc3c(CN(C)C)c(O)ccc3nc2-1` + COC1C(OC(N)=O)C(O)C(Oc2ccc3c(O)c(NC(=O)c4ccc(O)c(CC=C(C)C)c4)c(=O)oc3c2C)OC1(C)C the IC50 (second compound 0.0316 µM) was greater than 100 nM, the IC50 (second compound 0.1 µM) was 80.8 nM and the IC50 (second compound 0.316 µM) was 93.3 nM. It also gave an IC50 (second compound 1 µM) of 90.3 nM, an IC50 (second compound 3.16 µM) of 91.5 nM and an IC50 (second compound 10 µM) greater than 100 nM. The viability, T/C (second compound 0.0316 µM, first compound 0.000316 µM) was 90.7%, the viability, T/C (second compound 0.0316 µM, first compound 0.001 µM) was 81.6% and the viability, T/C [1] was 98.1%. For the same compound, the viability, T/C [2] was 92.1%, the viability, T/C [3] was 86.1% and the viability, T/C [4] was 56.5%. For the same compound, the viability, T/C (second compound 0.1 µM, first compound 0.000316 µM) was 94.2%, the viability, T/C (second compound 0.1 µM, first compound 0.001 µM) was 81.4% and the viability, T/C [5] was 100%. For the same compound, the viability, T/C [6] was 90.9%, the viability, T/C [7] was 79% and the viability, T/C [8] was 43%. For the same compound, the viability, T/C (second compound 0.316 µM, first compound 0.000316 µM) was 94.7%, the viability, T/C (second compound 0.316 µM, first compound 0.001 µM) was 72.9% and the viability, T/C [9] was 103%. It also gave a viability, T/C [10] of 97.7%, a viability, T/C [11] of 94.8% and a viability, T/C [12] of 47.2%. The viability, T/C (second compound 1 µM, first compound 0.000316 µM) was 109%, the viability, T/C (second compound 1 µM, first compound 0.001 µM) was 83.1% and the viability, T/C [13] was 76.4%. It also gave a viability, T/C [14] of 74.8%, a viability, T/C [15] of 97.3% and a viability, T/C [16] of 46.3%. For the same compound, the viability, T/C (second compound 3.16 µM, first compound 0.000316 µM) was 127%, the viability, T/C (second compound 3.16 µM, first compound 0.001 µM) was 76.6% and the viability, T/C [17] was 79.3%. For the same compound, the viability, T/C [18] was 77%, the viability, T/C [19] was 104% and the viability, T/C [20] was 46.4%. For the same compound, the viability, T/C (second compound 10 µM, first compound 0.000316 µM) was 109%, the viability, T/C (second compound 10 µM, first compound 0.001 µM) was 133% and the viability, T/C [21] was 89.3%. The viability, T/C [22] was 67.2%, the viability, T/C [23] was 71.7% and the viability, T/C [24] was 49.3%.
Compound `CC(=O)O[C@H]1C(=O)[C@@]2(C)[C@H]([C@H](OC(=O)c3ccccc3)[C@]3(O)C[C@H](OC(=O)[C@H](O)[C@@H](NC(=O)c4ccccc4)c4ccccc4)C(C)=C1C3(C)C)[C@]1(OC(C)=O)CO[C@@H]1C[C@@H]2O` + Cc1cccc(N(C)C(=O)C2C(O)CCN2c2nc(C)cc(C(F)(F)F)c2C#N)c1 has an IC50 (second compound 0.0316 µM) of less than 9.49 nM, an IC50 (second compound 0.1 µM) of less than 9.49 nM and an IC50 (second compound 0.316 µM) of less than 9.49 nM. For the same compound, the IC50 (second compound 1 µM) was less than 9.49 nM, the IC50 (second compound 3.16 µM) was less than 9.49 nM and the IC50 (second compound 10 µM) was less than 9.49 nM. The viability, T/C (second compound 0.0316 µM, first compound 0.00949 µM) was 35.9%, the viability, T/C (second compound 0.0316 µM, first compound 0.03 µM) was 21.7% and the viability, T/C (second compound 0.0316 µM, first compound 0.0949 µM) was 16.1%. The viability, T/C (second compound 0.0316 µM, first compound 0.3 µM) was 15.5%, the viability, T/C (second compound 0.0316 µM, first compound 0.949 µM) was 19.6% and the viability, T/C (second compound 0.0316 µM, first compound 3 µM) was 18.6%. The viability, T/C (second compound 0.1 µM, first compound 0.00949 µM) was 38.3%, the viability, T/C (second compound 0.1 µM, first compound 0.03 µM) was 20.5% and the viability, T/C (second compound 0.1 µM, first compound 0.0949 µM) was 13.9%. It also gave a viability, T/C (second compound 0.1 µM, first compound 0.3 µM) of 13.2%, a viability, T/C (second compound 0.1 µM, first compound 0.949 µM) of 19.7% and a viability, T/C (second compound 0.1 µM, first compound 3 µM) of 15.4%. The viability, T/C (second compound 0.316 µM, first compound 0.00949 µM) was 35.3%, the viability, T/C (second compound 0.316 µM, first compound 0.03 µM) was 21.7% and the viability, T/C (second compound 0.316 µM, first compound 0.0949 µM) was 16.7%. It also gave a viability, T/C (second compound 0.316 µM, first compound 0.3 µM) of 19%, a viability, T/C (second compound 0.316 µM, first compound 0.949 µM) of 21.5% and a viability, T/C (second compound 0.316 µM, first compound 3 µM) of 16%. For the same compound, the viability, T/C (second compound 1 µM, first compound 0.00949 µM) was 34.2%, the viability, T/C (second compound 1 µM, first compound 0.03 µM) was 19.4% and the viability, T/C (second compound 1 µM, first compound 0.0949 µM) was 15.6%. It also gave a viability, T/C (second compound 1 µM, first compound 0.3 µM) of 16.9%, a viability, T/C (second compound 1 µM, first compound 0.949 µM) of 18.6% and a viability, T/C (second compound 1 µM, first compound 3 µM) of 16%. It also gave a viability, T/C (second compound 3.16 µM, first compound 0.00949 µM) of 38.3%, a viability, T/C (second compound 3.16 µM, first compound 0.03 µM) of 17.8% and a viability, T/C (second compound 3.16 µM, first compound 0.0949 µM) of 15.4%. It also gave a viability, T/C (second compound 3.16 µM, first compound 0.3 µM) of 16%, a viability, T/C (second compound 3.16 µM, first compound 0.949 µM) of 19.2% and a viability, T/C (second compound 3.16 µM, first compound 3 µM) of 15.8%. It also gave a viability, T/C (second compound 10 µM, first compound 0.00949 µM) of 31.6%, a viability, T/C (second compound 10 µM, first compound 0.03 µM) of 17.8% and a viability, T/C (second compound 10 µM, first compound 0.0949 µM) of 12.4%. The viability, T/C (second compound 10 µM, first compound 0.3 µM) was 14.9%, the viability, T/C (second compound 10 µM, first compound 0.949 µM) was 18.1% and the viability, T/C (second compound 10 µM, first compound 3 µM) was 14.4%.
`CCc1c2c(nc3ccc(O)cc13)-c1cc3c(c(=O)n1C2)COC(=O)[C@]3(O)CC` + COC1C(OC(N)=O)C(O)C(Oc2ccc3c(O)c(NC(=O)c4ccc(O)c(CC=C(C)C)c4)c(=O)oc3c2C)OC1(C)C showed an IC50 (second compound 0.0316 µM) of 16.6 nM, an IC50 (second compound 0.1 µM) of 22.6 nM and an IC50 (second compound 0.316 µM) of 17.8 nM. It also gave an IC50 (second compound 1 µM) of 18.2 nM, an IC50 (second compound 3.16 µM) of 13.9 nM and an IC50 (second compound 10 µM) of 5.3 nM. For the same compound, the viability, T/C [1] was 82%, the viability, T/C [2] was 59.3% and the viability, T/C [3] was 38%. It also gave a viability, T/C [4] of 29.4%, a viability, T/C (second compound 0.0316 µM, first compound 0.316 µM) of 22.9% and a viability, T/C (second compound 0.0316 µM, first compound 1 µM) of 27.8%. The viability, T/C [5] was 75.8%, the viability, T/C [6] was 73.7% and the viability, T/C [7] was 40.1%. For the same compound, the viability, T/C [8] was 29.6%, the viability, T/C (second compound 0.1 µM, first compound 0.316 µM) was 28.7% and the viability, T/C (second compound 0.1 µM, first compound 1 µM) was 30.5%. The viability, T/C [9] was 68%, the viability, T/C [10] was 63.8% and the viability, T/C [11] was 36.2%. It also gave a viability, T/C [12] of 27.3%, a viability, T/C (second compound 0.316 µM, first compound 0.316 µM) of 29% and a viability, T/C (second compound 0.316 µM, first compound 1 µM) of 22.4%. For the same compound, the viability, T/C [13] was 62.9%, the viability, T/C [14] was 76.8% and the viability, T/C [15] was 31.5%. The viability, T/C [16] was 26.8%, the viability, T/C (second compound 1 µM, first compound 0.316 µM) was 29.3% and the viability, T/C (second compound 1 µM, first compound 1 µM) was 22.9%. The viability, T/C [17] was 73.1%, the viability, T/C [18] was 57.4% and the viability, T/C [19] was 31.6%. It also gave a viability, T/C [20] of 30.2%, a viability, T/C (second compound 3.16 µM, first compound 0.316 µM) of 27.8% and a viability, T/C (second compound 3.16 µM, first compound 1 µM) of 28.4%. For the same compound, the viability, T/C [21] was 53.2%, the viability, T/C [22] was 49.2% and the viability, T/C [23] was 34.2%. For the same compound, the viability, T/C [24] was 30.1%, the viability, T/C (second compound 10 µM, first compound 0.316 µM) was 31.8% and the viability, T/C (second compound 10 µM, first compound 1 µM) was 31.3%.
